The results in this text go back to PubChem BioAssay AID1645865 (Buhrlage Lab, Dana-Farber Cancer Institute and Novartis …, 2021).

SMILES strings stand for the structures. Activity calls are given as the source filed them.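 Rule for the calls: active = maximal inhibition of the USP30 enzyme reaching 30% or more across the dose series; inactive = the rest.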 Some results are limits rather than exact numbers.

The term IC50 denotes the concentration that gives 50% inhibition.

This assay deals with Ubiquitin carboxyl-terminal hydrolase 30 (Homo sapiens) (UniProt Q70CQ3). The assay is described as follows: inhibitors of ubiquitin-specific protease 30 deubiquitylating enzyme, concentration dependence, in vitro biochemical, validation of primary hits (AID 1645865). Particulars: purified USP30, Ub-rhodamine cleavage, fluorescence, 2 h.
Sequence of Ubiquitin carboxyl-terminal hydrolase 30 (Homo sapiens) (Q70CQ3 whole entry, looked up): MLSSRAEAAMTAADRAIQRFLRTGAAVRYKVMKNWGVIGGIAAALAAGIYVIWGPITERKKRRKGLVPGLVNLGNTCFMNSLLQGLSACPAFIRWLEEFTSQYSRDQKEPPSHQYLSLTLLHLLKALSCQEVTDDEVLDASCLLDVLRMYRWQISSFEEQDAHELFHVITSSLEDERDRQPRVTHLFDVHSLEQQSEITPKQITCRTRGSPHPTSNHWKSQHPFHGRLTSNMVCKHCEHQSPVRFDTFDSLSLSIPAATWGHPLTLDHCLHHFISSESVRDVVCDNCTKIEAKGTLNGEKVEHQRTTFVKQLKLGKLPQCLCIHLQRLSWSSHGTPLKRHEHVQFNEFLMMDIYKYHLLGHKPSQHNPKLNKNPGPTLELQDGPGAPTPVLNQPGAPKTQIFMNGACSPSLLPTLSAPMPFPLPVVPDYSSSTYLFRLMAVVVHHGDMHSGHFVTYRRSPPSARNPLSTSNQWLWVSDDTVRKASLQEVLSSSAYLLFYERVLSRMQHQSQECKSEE
Take `CC1=CN2C(=N)/C(=C/c3cn(Cc4ccc(Cl)cc4)c4ccccc34)C(=O)N=C2S1`: the IC50 is > 50 µM (inactive). For `COc1c(O)cc(CC(=O)O)c(C(C)=O)c1O`, the IC50 was > 5 µM (inactive). Next, `NC(=O)CCC(=O)N[C@H]1C[C@H]2CN(Cc3ccccc3)c3ccccc3CN2C1`: > 50 µM (inactive). On to `Cc1ccc2nc(NC(=O)C3CCCN3S(=O)(=O)c3ccc4c(c3)OCCO4)sc2c1` (stereo not drawn), for which the IC50 is > 50 µM (inactive).

Take `COc1ccc(S(=O)(=O)N2CCC3(CC2)OC(=O)Nc2ccccc23)cc1`: the IC50 is 37.1 µM. For `O=C(Nc1ccccc1)c1nc(-c2cn(Cc3ccc(F)cc3)nn2)no1`, the IC50 was 28.6 µM. The same measure for `Cc1nc(-c2ccccn2)sc1C(=O)Nc1ccc(C#N)cc1`: > 50 µM (inactive); for `O=C(COc1nc2ccccc2nc1N1CCOCC1)Nc1cccc(S(=O)(=O)N2CCCCC2)c1`: > 50 µM (inactive). The same measure for `CCOC(=O)c1c(C)nc2n(Cc3ccccc3)c3ccccc3n12`: 17.9 µM; for `Cc1ccc2nc(NC(=O)CSc3nnc(-c4ccncc4)n3C3CC3)sc2c1`: 2.81 µM. `Cc1cc(O)c2c3c(c(O)cc2c1)C(=O)c1c(O)cccc1C3=O`: the IC50 is > 50 µM (inactive).

Consider `Cc1cc(C)cc(-n2cnc3cc(C(=O)NCCC4=CCCCC4)ccc32)c1`, for which the IC50 is > 50 µM (inactive). As for `N#Cc1ccccc1Cn1c(=O)n(Cc2ccco2)c(=O)c2ccccc21`, the IC50 was > 50 µM (inactive). As for `CCNc1oc(-c2ccc(S(=O)(=O)N3CCCCC3)cc2)nc1C#N`, the IC50 was 21.9 µM. With `c1coc(CNc2nc(Nc3cccc4ccccc34)nc3ccccc23)c1`, the IC50 is > 50 µM (inactive). In the case of `c1csc(-c2nc(Nc3ccc4c(c3)CCC4)c3ccccc3n2)c1`, the IC50 is 4.91 µM.

Regarding `CCC(=O)N1c2ccccc2NC2=C(C(=O)CC(c3ccccc3OCc3ccccc3)C2)C1c1ccccc1` (stereo not drawn), the IC50 was 2.39 µM. As to `Cc1ccc(Nc2nc(NCCc3ccccc3)nc3c2cnn3C)cc1`, the IC50 was 29.2 µM. Turning to `CCc1ccc(Nc2cc(C(=O)NCCCOC(C)C)c3ccccc3n2)cc1`, the IC50 is 8.88 µM. Turning to `CSc1nc(Cc2ccc(Cl)cc2)nc2ccccc12`, the IC50 was > 50 µM (inactive).

For the molecule `COc1ccc(NC(=O)CSc2oc(-c3ccc(C)cc3)nc2S(=O)(=O)c2ccc(Br)cc2)c(OC)c1`, the IC50 is > 50 µM (inactive).

Consider `O=C(CN1CCCc2ccccc21)Nc1ccc(N2CCOCC2)cc1`, for which the IC50 is > 50 µM (inactive).

Take `O=S(=O)(c1cccc2cccnc12)N(CCc1ccccc1)C1CCN(CCc2ccc(Cl)cc2)CC1`: the IC50 is > 50 µM (inactive).

For the molecule `Cc1ccc2cc(CNc3ccccc3)c(=O)n(CC(=O)Nc3ccccc3C)c2c1`, the IC50 is 40.7 µM.

With `O=c1sc2ccccc2c(=O)n1Cc1cccc(C(F)(F)F)c1`, the IC50 is > 50 µM (inactive). Take `Cc1ccc(NC(=O)c2ccc(N3CCOCC3)nn2)cc1F`: the IC50 is 39.7 µM. Turning to `c1ccc(Cc2nn3c(-c4cccnc4)nnc3c3ccccc23)cc1`, the IC50 is 0.654 µM. Consider `COc1ccc(OC)c(-c2cn3ccn(-c4ccc5c(c4)CCC5)c(=O)c3n2)c1`, for which the IC50 was > 50 µM (inactive). Regarding `Cc1cccc(NC(=O)Cn2c(N3CCOCC3)nc3cc(C)n(C)c3c2=O)c1`, the IC50 was 20.9 µM. Next, `CC(C)CC1NC(=O)C2CCCN2C1=O` (stereo not drawn): > 50 µM (inactive). In the case of `Cc1ccccc1N1C(=O)/C(=C\c2cccn2C)c2ccccc2C1=O`, the IC50 was > 50 µM (inactive).

In the case of `O=C1/C(=C/c2cn(-c3ccccc3)nc2-c2ccc3c(c2)OCCO3)Cc2ccccc21`, the IC50 was > 50 µM (inactive). Regarding `CCCc1c(C(=O)O)c(O[C@H]2O[C@H](C)[C@@H](OC)[C@H](OC)[C@@H]2OC)cc2cc3c(c(O)c12)C(=O)c1c(O)cc(O[C@@H]2O[C@@H](C)[C@H](O[C@H]4O[C@H](C)[C@@H](OC)[C@H](OC)[C@@H]4O)[C@@H](OC)[C@H]2O)cc1C3=O`, the IC50 was > 50 µM (inactive).

Consider `CSc1ccccc1NC(=O)c1ccc(-n2cccn2)nn1`, for which the IC50 is 2.32 µM. On to `O=C(Cc1c[nH]c2ccccc12)Nc1nc2ccccc2s1`, for which the IC50 is > 50 µM (inactive).

In the case of `CC(C)Cc1cc(-c2nnc3sc(-c4ccco4)nn23)n[nH]1`, the IC50 is > 50 µM (inactive).

On to `CNC(=O)c1c2n(c3ncccc13)CCN(S(=O)(=O)c1ccc(-c3ccccc3)cc1)C2`, for which the IC50 was 3.95 µM.

With `CCOC(=O)c1cc2c(ccn2C)n1CC(=O)N1CCC(C)CC1`, the IC50 is > 50 µM (inactive). On to `Cc1ccc2c(c1)[C@]1(C(=O)N2)[C@@H](C(=O)c2ccccc2)[C@]2(C(=O)Nc3ccccc32)[C@@H]2CCCN21`, for which the IC50 is 35.1 µM. For the molecule `COc1ncccc1CN1CCn2c(Cn3cncn3)cnc2C1C` (stereo not drawn), the IC50 was > 50 µM (inactive). The same measure for `O=C(CSc1nncc2ccccc12)Nc1ccc2c(c1)OCO2`: > 50 µM (inactive). With `COc1ccc(-c2cc(-c3nnc4n3CCCCC4)n(-c3ccccc3)n2)cc1`, the IC50 was 39.3 µM. The same measure for `Cc1sc(-c2cccnc2)nc1OC(=O)c1ccc(Cl)c(Cl)c1`: > 50 µM (inactive); for `Cc1ccc(C)c(NC(=O)CCc2nc(CSc3nc4ccccc4o3)no2)c1`: 23.8 µM. Consider `O=C1Oc2nc3ccccc3cc2CN1Cc1ccco1`, for which the IC50 is 17.2 µM. The same measure for `O=C(Nc1cc(F)c2nc(N3CCOCC3)ccc2c1)c1ccc(Br)o1`: > 50 µM (inactive). Next, `Cc1ccccc1NC(=O)C(C)n1c(=O)cc(-c2ccccc2)c2c(C)nn(C)c21` (stereo not drawn): 2.45 µM; `CCC(=O)OCc1cnc(C)c2oc(=O)c(-c3nc(-c4ccccc4)no3)cc12`: > 50 µM (inactive); `COC(=O)c1ccc2c(=O)n(CCCCCC(=O)NCCc3ccc(S(N)(=O)=O)cc3)c(=O)[nH]c2c1`: 6.13 µM.

In the case of `Cc1ccc(C)c(CSC2=NCCN2C(=O)c2ccco2)c1`, the IC50 was > 50 µM (inactive). For the molecule `Cc1ccc(-c2ccc(N3CCOCC3)nn2)cc1S(=O)(=O)N1CCOCC1`, the IC50 is > 50 µM (inactive).

For `Cc1nn(-c2nc3ccccc3[nH]2)c2c1C(c1cccs1)CC(=O)N2` (stereo not drawn), the IC50 is > 50 µM (inactive).

With `CCNc1nc(SCC(C)=O)nc2sc3c(c12)CCC(C)C3` (stereo not drawn), the IC50 was > 50 µM (inactive). As to `Cn1ccnc1CN1C[C@H]2CCN(c3ncccn3)C[C@H]2C1`, the IC50 is > 50 µM (inactive). On to `COc1ccc(COc2ccc3c(C)c(CC(=O)N4CC[C@@]5(O)CCCC[C@H]5C4)c(=O)oc3c2)cc1`, for which the IC50 was 2.22 µM. Take `COc1ccccc1CC(=O)Nc1nc2ccccc2[nH]1`: the IC50 is 28.4 µM. Consider `CC1=C2C(=NCCN1)C(=O)N(c1ccccc1)C2c1cccnc1` (stereo not drawn), for which the IC50 is > 50 µM (inactive). For `Cc1ccc(CN2C(=O)c3cc4ccccc4n3CC2(C)C(=O)NCc2ccccc2)o1` (stereo not drawn), the IC50 was 14.8 µM. With `O=c1[nH]c(-c2ccccn2)nc2c1CCN(Cc1cnn(-c3ccccc3)c1)C2`, the IC50 is > 50 µM (inactive). On to `CCc1ccc2c(c1)[C@]1(C(=O)N2)[C@@H]2C(=O)N(c3ccc(Cl)cc3Cl)C(=O)[C@@H]2[C@@H]2CCCN21`, for which the IC50 was > 50 µM (inactive).

For `COc1ccc2c(C)c(CC(=O)N3CCC[C@H]3C(=O)O)c(=O)oc2c1C`, the IC50 was 45 µM.

Regarding `Cc1cc(C)n(-c2ccc(C(=O)Nc3cccc(S(=O)(=O)N4CCCC4)c3)cc2)n1`, the IC50 was 9.63 µM. In the case of `CCn1cc2c(n1)c(=O)n(Cc1ccc(C)cc1)c(=O)n2CC(=O)Nc1ccc(F)cc1`, the IC50 is 3.47 µM. Consider `Cc1cccc(OCCn2c(CCNC(=O)C3CCCCC3)nc3ccccc32)c1`, for which the IC50 is 20.2 µM. Consider `CNc1nc2c(c(=O)n1C)CN(C(=O)Nc1cccc3ccccc13)CC2`, for which the IC50 is > 50 µM (inactive). `COc1ccc(C(=O)CSc2nnc(-c3cccnc3)n2-c2ccccc2)cc1`: the IC50 was > 50 µM (inactive). The same measure for `N#Cc1c(N)nc2c(c1N)C(c1ccccc1)CO2` (stereo not drawn): 42.8 µM. Next, `COc1ccc(S(=O)(=O)N2CCN3Cc4ccccc4N(C)CC3C2)cc1` (stereo not drawn): > 50 µM (inactive); `COc1ccc(NC(=O)CC(=O)c2ccc([N+](=O)[O-])cc2)cc1S(=O)(=O)Nc1ccc(Cl)cc1`: 37.1 µM. Take `Oc1ccc(-c2nc3cnccn3c2NCCc2ccccc2)c(O)c1`: the IC50 is > 50 µM (inactive). The same measure for `CC1=C(C)C(c2c(-c3ccc(C)cc3)[nH]c3ccccc23)N(C(C)(C)C)C1=O` (stereo not drawn): 1.85 µM.

As to `Cc1cc(C(=O)Nc2ccc3nc(N4CCN(c5ncccn5)CC4)cc(C)c3c2)ccc1[N+](=O)[O-]`, the IC50 was 2.24 µM. On to `Cc1c(CC(=O)N2CCN(c3ncccn3)CC2)c(=O)oc2cc(O)ccc12`, for which the IC50 is 26.3 µM.
